The target in assay [1] is T1, human CCR2 (Homo sapiens, UniProt P41597). As to the kind of experiment: CCR2 functional calcium assay (FLIPR calcium flux, hMCP-1 challenge). Format: cell-based. More on the design: expressed in transfected cells; host or cells: HEK293 EBNA cells. Conditions: HEK293 EBNA cells transfected with human CCR2, hMCP-1 challenge; read-out: Functional CCR2 fKi. The essentials: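 FLIPR Fluo-4 calcium flux in HEK293 EBNA cells transfected with human CCR2, with non-transfected cells as control. Compounds (10-point 1:3 curves, typically 30 μM to 0.5 nM) were added in HBSS/20 mM HEPES/0.1% BSA, pH 7.4, followed by MCP-1 challenge. Peak minus basal signal was expressed as % of EC50 MCP-1 response.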

The target in assay [2] is T1, human CCR2. Put plainly: CCR2 binding assay ([125I]-MCP-1 displacement, SPA). Conditions: human CCR2-HEK293 EBNA membranes. More on the design: expressed in transfected cells; host or cells: HEK293 EBNA cells (membrane preparation). How it is done:
The binding of test compounds to the CCR2 receptor was evaluated using [^125I]-MCP-1.
Briefly, 25 μL assay buffer (25 mM HEPES, pH 7.4, 5 mM MgCl2, 1 mM CaCl2, 0.2% (w/v) protease free BSA, 100 μg/mL bacitracine and 0.1 M NaCl) was placed into total binding wells and 25 μL unlabelled ligand (0.4 μM MCP-1, for determination of non-specific binding) was placed into non-specific binding wells. [^125I]-MCP-1 (25 μL), human CCR2-HEK293 EBNA membrane preparation (25 μL) and SPA beads (25 μL) were added to all the wells. The wells were incubated for 4 h and counted for 1 min/well in a Perkin Elmer Topcount NXT.
The SPA beads (wheat germ agglutinin (WGA) PEI Type A PVT 0.25 mg/well) were prepared by reconstituting lyophilised bead to 100 mg/mL with de-ionised water and further diluting in assay buffer to give 10 mg/mL. The radioligand ([^125I]-MCP-1) was prepared by dilution in assay buffer to give 0.32 μCi/mL, ˜17600 dpm/25 μL (specific activity 2000 Ci/mMol). The final assay concentration was 0.04 nM. The human CCR2-HEK293 EBNA cells membranes were prepared as follows: cells were spun down at 1000×g for 3 min at room temperature, washed in PBS and spun down again. The cells were then homogenised with an Ultra Turrax at setting 6 in 5-10 mL ice cold buffer A (EDTA 10 mM, HEPES 10 mM, pH 7.4) for 10 sec. Following dilution with further ice cold buffer A and spinning at 20000×g for 20 min at 4° C., the mixture was re-homogenised in 5-10 mL ice cold buffer B (EDTA 0.1 mM, HEPES 10 mM, pH 7.4) and spun at 20000×g for 20 min at 4° C. The protein was assayed and re-suspended in buffer C (Buffer B+1 tablet/10 mL of Roche protease inhibitor cocktail) at 3 mg/mL. Before use, the membranes were thawed and diluted with assay buffer to give 80 μg/mL (2 μg/well).
Specific binding was determined as the difference between total binding in the absence of antagonist and binding in the presence of excess antagonist (non-specific binding). Data was expressed as a percentage of specific binding and analysed by a 4-parameter logistic equation using GraphPad Prism 4 software (GraphPad, San Diego, Calif., USA) to yield IC50 values. Ki values were calculated from the IC50 values using the correction for radioligand concentration.

In assay [3] the test system is rat model of STZ induced diabetes. Put plainly: rat model of STZ induced diabetes (diabetic nephropathy), kidney histology. Format: in vivo. The settings on record: male Wistar rats, STZ 50 mg/kg i.p., 8 mg/kg/day oral, kidney day 43, p<0.01 vs STZ-vehicle. The text has this:
Diabetic nephropathy is a common manifestation of renal disease and is defined as the progressive development of renal insufficiency in the setting of hyperglycaemia. This sustained hyperglycaemia causes glomerular mesangial expansion through increased synthesis and decreased degradation of extracellular matrix protein, which progressively destroys the glomerular capillaries, eventually leading to proteinuria and renal failure. Animal models for diabetes can be employed for assessing the mechanisms of the disease, screening potential therapies for the treatment of this condition, and evaluation of therapeutic options. […] A single intraperitoneal injection of STZ in rats results in selective damage of the insulin producing beta cells in the pancreas causing insulin deficiency and subsequent hyperglycaemia after 48 hours. Over the time course of this procedure which can last from 3 weeks to many months, animals develop modest elevations in albuminuria and serum creatinine and some of the histological lesions associated with diabetic nephropathy. The aim of this study was to determine the efficacy of a test compound CCR2 antagonist (Example 33) in a rat model of STZ induced diabetes.
Male Wistar rats were given daily oral administration of the vehicle (30% w/v hydroxypropyl-beta-cyclodextrin (HPBC)) in saline to groups 1 and 3, or oral administration of Example 33 (8 mg/kg/day) to group 2, from 3 days prior to administration of streptozotocin. On day 0 streptozotocin was injected (50 mg/kg body wt, i.p. dissolved in 20 mM sodium citrate buffer) to rats in groups 1 and 2 (STZ groups). Group 3 rats (sham) were injected with an equivalent volume of 20 mM sodium citrate buffer. On day 43 all animals were culled, the left kidney was removed and cut in a sagittal section. These tissue samples were fixed by immersion in 10% (wt/vol) formaldehyde in phosphate-buffered saline (PBS) (0.01 mol/L, pH 7.4) at room temperature. […] The measured parameters were 1) monocyte and macrophage infiltration, 2) tubular damage and 3) glomerular damage. […]

Bounds are passed on as bounds.

T1 sequence (P41597 whole entry): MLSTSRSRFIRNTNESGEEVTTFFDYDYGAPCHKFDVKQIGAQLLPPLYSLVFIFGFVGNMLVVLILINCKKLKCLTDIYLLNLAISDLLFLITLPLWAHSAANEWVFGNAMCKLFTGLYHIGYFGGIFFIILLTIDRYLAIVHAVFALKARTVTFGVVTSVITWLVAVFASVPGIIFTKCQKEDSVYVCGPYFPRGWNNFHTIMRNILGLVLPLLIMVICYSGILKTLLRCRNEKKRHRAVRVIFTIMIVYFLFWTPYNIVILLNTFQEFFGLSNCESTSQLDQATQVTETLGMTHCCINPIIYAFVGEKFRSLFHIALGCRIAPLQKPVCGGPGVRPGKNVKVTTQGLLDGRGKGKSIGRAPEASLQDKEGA

Consider `CCOC(=O)c1nc2ccnn2c(O)c1Cc1ccc(Cl)c(Cl)c1` [Example 72, Ethyl 6-[(3,4-dichlorophenyl)methyl]-7-hydroxypyrazolo[1,5-a]pyrimidine-5-carboxylate], for which the Ki in assay [1] was less than 10 nM; in assay [2] it was 10 to 100 nM.

For `Oc1c(Cc2cc(F)cc(C(F)(F)F)c2)c(C2CC2)nc2ccnn12` [Example 33, 5-Cyclopropyl-6-{[3-fluoro-5-(trifluoro-methyl)phenyl]methyl}pyrazolo[1,5-a]-pyrimidin-7-ol], in assay [3], the “glomerular damage (semiquantitative score)” value is reported as “statistically significant effect reducing”; the “monocyte and macrophage infiltration (semiquantitative score)” value was “statistically significant effect reducing”; the “tubular damage (semiquantitative score)” value is given as “statistically significant effect reducing”. In assay [1], the Ki was less than 10 nM. Moreover, the Ki in assay [2] fell in the range of 10 to 100 nM.

With `Oc1c(Cc2cccc(Cl)c2)c(C2CC2)nc2ccnn12` [Example 21, 6-[(3-Chlorophenyl)methyl]-5-cyclo-propylpyrazolo[1,5-a]pyrimidin-7-ol], the results for the Ki in assay [1] and in assay [2] were less than 10 nM and 10 to 100 nM, respectively.

In the case of `CCOC(=O)c1nc2ccnn2c(O)c1Cc1cccc(Cl)c1` [Example 70, Ethyl 6-[(3-chlorophenyl)methyl]-7-hydroxypyrazolo[1,5-a]pyrimidine-5-carboxylate], the results for the Ki in assay [1] and in assay [2] were less than 10 nM and 100 to 1000 nM, respectively.

For `Oc1c(Cc2cccc(C(F)(F)F)c2)c(C2CC2)nc2ccnn12` [Example 22, 5-Cycloproyl-6-{[3-(trifluoromethyl)-phenyl]methyl}pyrazolo[1,5-a]pyrimidin-7-ol], the results for the Ki in assay [1] and in assay [2] were less than 10 nM and 10 to 100 nM, respectively.

As for `CCc1nc2ccnn2c(O)c1Oc1ccc(Cl)c(Cl)c1` [Example 64, 6-(3,4-Dichlorophenoxy)-5-ethyl-pyrazolo[1,5-a]pyrimidin-7-ol], the figures for the Ki in assay [1] and in assay [2] were less than 10 nM and 10 to 100 nM, respectively.

As for `CC(C)c1nc2ccnn2c(O)c1Cc1ccc(F)c(Cl)c1` [Example 37, 6-[(3-Chloro-4-fluorophenyl)methyl]-5-(propan-2-yl)pyrazolo[1,5-a]pyrimidin-7-ol], the Ki in assay [1] and in assay [2] was less than 10 nM in each case.

In the case of `CC(C)c1nc2ccnn2c(O)c1Cc1ccc(F)c(C(F)(F)F)c1` [Example 40, 6-{[4-Fluoro-3-(trifluoromethyl)phenyl]-methyl}-5-(propan-2-yl)pyrazolo[1,5-a]-pyrimidin-7-ol], the figures for the Ki in assay [1] and in assay [2] were less than 10 nM and 100 to 1000 nM, respectively.

For `Cc1nc2ccnn2c(O)c1Cc1ccc(Cl)cc1` [Example 1, 6-[(4-Chlorophenyl)methyl]-5-methylpyrazolo[1,5-a]pyrimidin-7-ol], the values for the Ki in assay [1] and in assay [2] were 10 to 100 nM and 100 to 1000 nM, respectively.

Consider `Oc1c(Oc2ccc(Br)cc2)c(C2CC2)nc2ccnn12` [Example 65, 6-(4-Bromophenoxy)-5-cyclopropyl-pyrazolo[1,5-a]pyrimidin-7-ol], for which the Ki in assay [1] was less than 10 nM; in assay [2], 100 to 1000 nM.

`Cc1nc2c(C(=O)NC[C@@H]3CCCO3)cnn2c(O)c1Cc1ccc(Cl)cc1` (stereo in doubt) [Example 110, 6-[(4-Chlorophenyl)methyl]-7-hydroxy-5-methyl-N-(oxolan-2-ylmethyl)pyrazolo-[1,5-a] pyrimidine-3-carboxamide]: in assay [1], the Ki fell in the range of 100 to 1000 nM.

Take `CC(C)c1nc2ccnn2c(O)c1Cc1ccc(Cl)c(F)c1` [Example 38, 6-[(4-Chloro-3-fluorophenyl)methyl]-5-(propan-2-yl)pyrazolo[1,5-a]pyrimidin-7-ol]: in assay [1], the Ki was less than 10 nM.

With `COC(=O)c1nc2ccnn2c(O)c1Cc1ccc(Cl)c(Cl)c1` [Example 83, Methyl 6-[(3,4-dichlorophenyl)methyl]-7-hydroxypyrazolo[1,5-a]pyrimidine-5-carboxylate], in assay [1], the Ki was less than 10 nM.

Take `Oc1c(Cc2ccc(F)c(F)c2)c(C2CCC2)nc2ccnn12` [Example 45, 5-Cyclobutyl-6-[(3,4-difluorophenyl)-methyl]pyrazolo[1,5-a]pyrimidin-7-ol]: in assay [1], the Ki was less than 10 nM.

For the compound `CC(C)OC(=O)c1nc2ccnn2c(O)c1Cc1ccc(Cl)c(Cl)c1` [Example 84, Propan-2-yl 6-[(3,4-dichlorophenyl)-methyl]-7-hydroxy pyrazolo[1,5-a]-pyrimidine-5-carboxylate], in assay [1], the Ki was less than 10 nM.

`COCCNC(=O)c1cnn2c(O)c(Cc3ccc(Cl)cc3)c(COC)nc12` [Example 118, 6-[(4-Chlorophenyl)methyl]-7-hydroxy-N-(2-methoxy-ethyl)5-(methoxymethyl)-pyrazolo[1,5-a]pyrimidine-3-carboxamide]: the Ki in assay [1] lay within 100 to 1000 nM.

On to `CCCc1nc2ccnn2c(O)c1Cc1ccc(C(F)(F)F)c(F)c1` [Example 16, 6-{[3-Fluoro-4-(trifluoromethyl)phenyl]-methyl}-5-propylpyrazolo[1,5-a]-pyrimidin-7-ol], for which the figures for the Ki in assay [1] and in assay [2] were less than 10 nM and 100 to 1000 nM, respectively.

As to `Cc1nc2ccnn2c(O)c1Oc1cccc(F)c1` [Example 5, 6-(3-Fluorophenoxy)-5-methylpyrazolo[1,5-a]pyrimidin-7-ol], in assay [1], the Ki is 10 to 100 nM.

For the compound `COCc1nc2ccnn2c(O)c1Cc1ccc(Cl)cc1` [Example 51, 6-[(4-Chlorophenyl)methyl]-5-(methoxy-methyl)pyrazolo[1,5-a]pyrimidin-7-ol], in assay [1], the Ki is 10 to 100 nM.

For `Oc1c(Cc2ccc(F)c(F)c2)c(C2CC2)nc2ccnn12` [Example 24, 5-Cyclopropyl-6-[(3,4-difluorophenyl)-methyl]pyrazolo[1,5-a]pyrimidin-7-ol], the Ki in assay [1] is less than 10 nM.

Take `CCN(c1cccc(F)c1)c1c(C)nc2ccnn2c1O` [Example 79, 6-[Ethyl(3-fluorophenyl)amino]-5-methylpyrazolo[1,5-a]pyrimidin-7-ol]: in assay [1], the Ki fell in the range of 100 to 1000 nM.

For `CC(C)c1nc2ccnn2c(O)c1Cc1ccc(F)c(F)c1` [Example 35, 6-[(3,4-Difluorophenyl)methyl]-5-(propan-2-yl)pyrazolo[1,5-a]pyrimidin-7-ol], the Ki in assay [1] is less than 10 nM.

Source of the values: patent US20130252951A1, “7-HYDROXY-PYRAZOLO[1,5-A] PYRIMIDINE COMPOUNDS AND THEIR USE AS CCR2 RECEPTOR ANTAGONISTS” (Proximagen Limited, priority 2010, published 2013).
